Experimental data reported in PMC3293351, “Pharmacokinetics and Excretion Studies on CDRI-85/92, an Antiulcer Proton Pump Inhibitor” (Scientia Pharmaceutica, 2011).
Values joined by “and” are separate entries in the source; they are usually repeats but may differ in a detail not shown here. Equal entries are not always repeated. Where two headings read alike, the source gives them in different places. Each block holds one compound with its values, some of them ahead of it.

Tests used:
[1] = Pharmacokinetics in serum after 20 mg/kg oral and intravenous doses; assay type: in vivo, Sprague Dawley rats
Experimental: As the first step of experiment, an aqueous solution formulation of the compound was administered intravenously to conscious rats via the caudal vein at a dose of 20 mg/kg in a volume of approximately 1.0 ml/kg/rat. Before the experiment, the tail was cleaned with luke warm water and the caudal vein was dilated using xylene. Blood (approx. 1.2 ml) was collected by cardiac puncture under light ether anesthesia at 0.08, 0.25, 0.5, 1, 2, 3, 4, 5, 6, 8, 12, 24 and 48 h post dose. In the second study, conscious rats, fasted overnight, were fed orally at a dose of 20 mg/kg in a volume of 2.0 ml/kg/rat. After drug delivery, blood was collected at the same time points used in the intravenous study. Three rats were utilized for each time point and not more than three or four (later in case of 48 hr) blood samples from each rat, two of which were by intracardiac during the absorption-distribution phase (till 5 hr) and one from the venecava in the terminal phase (6 hr onwards), was withdrawn. Together in two sets of studies, there were 24 rats. (Pl refer to Sampling schedule: Table 1). The total volume of the blood withdrawn within 24 h from cardiac puncture was less than 10% of the total blood volume. Blood was allowed to clot in sealed glass tubes and centrifuged at 2000 rpm. The serum was separated and stored at −60°C until analyses.
Serum concentrations of the compound were determined by HPLC method as described by Srivastava & Gupta (2002) with minor modification. Briefly, to 0.5 ml serum (blank, spiked or test) in 10 ml test tube 1.5 ml of acetonitrile was added and vortex-mixed for 15 sec. The tubes were kept in fridge for 30 min for complete protein precipitation, vortex-mixed for 1 min and centrifuged at 1000 × g for 10 min at 4°C. Supernatant (1.5 ml) was transferred to a 10 ml conical tube without disturbing the lower precipitate pellet and evaporated to dryness in Savant speed vac concentrator. The residue was reconstituted in 0.1 ml of mobile phase, centrifuged at 1000 × g for 10 min and the resulting solution was injected onto the HPLC system.
After oral dose, serum peak concentration (Cmax) and the time to reach peak concentration (Tmax) were derived directly from the original data. The serum concentration-time data from intravenous and oral dosed rats were fitted to WinNonlin programme (version 1.5) to calculate various pharmacokinetic parameters (like AUC, Cl and Vd). The bioavailability for oral dose was calculated using the following equation:
%Bioavailability=AUCoral×Doseiv/AUCiv×Doseoral×100

[2] = tested on: free acidity; details: compared with Omeprazole; cited from earlier work
[3] = tested on: glutathione-S-transferases; parameters: method as in PMID 15283303; details: formation of trans-isoform; cited from earlier work
[4] = method not specified; cited from earlier work
[5] = cited from earlier work
[6] = parameters: method as in PMID 12711165; details: alike at acidic and basic pHs; cited from earlier work
[7] = tested on: proton pumps of the kidney and bone; parameters: method as in PMID 17045703; details: cited from earlier work
[8] = log P from potentiometric titration; assay type: physicochemical; details: aqueous solution titrated with 0.1 M NaOH
Experimental: where Coctanol and Cbuffer are the concentrations of the compound in octanol and buffer, respectively. Further, log P values {[…]} were also calculated after conducting potentiometric titration. It was carried out manually using a pH electrode and a variable volume pipette. A solution of the compound (1 mg/ml) was prepared in water and it was titrated with a 0.1 M NaOH solution, pH was measured simultaneously. The equivalence point (pKa- partition coefficient) was estimated from the inflection point in the titration curve from the plot between pH and volume of mL of NaOH solution.

[9] = Urinary, fecal and biliary excretion after 20 mg/kg oral and intravenous dose; assay type: in vivo, Sprague Dawley rats; details: for k el: Sprague Dawley, rat; for Excreted in urine, % of the dose: intravenously treated rats, bile duct cannulated as well as noncannulated
Experimental: Urinary, fecal and biliary excretion of CDRI-85/92 was studied in rats (n=3 per group) after a single 20 mg/kg oral and intravenous dose. Following treatment with CDRI-85/92, urine and feces samples were collected during 24 h with 12 h intervals. Urine was measured and kept in parafilm sealed tubes at −60°C till analyses. Feces samples were dried at 37°C, weighed, ground to fine powder using mortar-pestle and stored in desiccator until analyses. Untreated rats were housed in metabolic cages with food and water ad libitum and their feces and urine collected to serve as blank samples for method development and validation.
For biliary excretion study, bile duct of the rats was surgically cannulated under light ether anesthesia. Rats were dosed with the solution formulation of CDRI-85/92 at 20 mg/kg orally or intravenously and placed in Bollman cages. Bile samples were collected in glass tubes at 0–12 and 12–24 h post dose. The volume of the samples were recorded and stored at −60°C until analyses.
The HPLC method described above was validated for estimation of CDRI-85/92 in urine and bile by assaying the spiked control samples in these biomatrics at three concentration levels (20, 50 and 100 ng/ml of the drug). To have a robust method, inter- and intra-day validation was also conducted (Table 2).
For the preparation of the spiked control feces samples, weighed (25 mg) quantities of drug-free powdered feces were transferred to different glass tubes, fortified with appropriated volume of working dilutions of CDRI-85/92 prepared in methanol, mixed by gentle tapping and allowed to stand at room temperature for drying. The blank, spiked or test samples were moistened with 0.2 ml of KH2PO4 buffer (20 mM, pH 3.0) followed by addition of 1.0 ml of acetonitrile for protein precipitation. The tubes were sealed with parafilm and allowed to stand at room temperature with frequent vortexing. Supernatant were processed as described above for serum samples. For each analytical run, a calibration curve was constructed using peak response against the concentration in calibration standards prepared in same biomatrix.
The amount, cumulative amount and % of the administered dose excreted via urine, bile and feces were calculated.

[10] = tested on: gastric proton pump; details: cited from earlier work
[11] = parameters: method as in PMID 17045703; details: cited from earlier work
[12] = Partition coefficient (log P), 1-octanol/phosphate buffer; assay type: physicochemical; details: 1-octanol/20 mM phosphate buffer; octanol partition, 20 mM phosphate buffer pH 7.4, 25°C
Experimental: Determination of log P was carried out according to the method of Said et al. (1996). 1-Octanol and 20 mM phosphate buffer (pH, 7.4) were mutually saturated for 6 h on magnetic stirrer and separated. A solution of the compound (1 mg/ml) was prepared in […]. Buffer (2 ml) and octanol containing CDRI-85/92 were placed in seven glass tubes and screw capped. These tubes were tumble-mixed for 2 h at 25°C at about 100 inversions/min. The organic and aqueous phases were separated by centrifugation at 2500 rev/min for 20 min. The concentration of the compound in aqueous and organic phase was determined by HPLC after a suitable dilution in mobile phase. The log P was calculated from the following equation:
Log P=logCoctanol/Cbuffer

[13] = Aqueous solubility; assay type: physicochemical
[14] = parameters: method as in PMID 12563304; details: in rats; cited from earlier work
[15] = Sprague Dawley, serum, rat, 20 mg/kg IV
[16] = Sprague Dawley, rat serum, 20 mg/kg oral
[17] = IV 20 mg/kg, bile duct cannulated rats
[18] = IV 20 mg/kg, non-cannulated rats
[19] = IV 20 mg/kg, non-cannulated rats, up to 24 h, 20 mg/kg
[20] = oral 20 mg/kg, bile duct cannulated rats
[21] = oral 20 mg/kg, bile duct cannulated rats, up to 24 h, 20 mg/kg
[22] = oral 20 mg/kg, non-cannulated rats
[23] = oral 20 mg/kg, non-cannulated rats, up to 24 h, 20 mg/kg

Cmax ([1]; Sprague Dawley, rat, serum, iv, 20 mg/kg, rat serum, 20 mg/kg IV, read-out: Cmax): 4910 ng/mL
half-life ([1]; Sprague Dawley, rat, serum, iv, 20 mg/kg, rat serum, 20 mg/kg IV, read-out: Elimination t1/2 (converted)): 2 h
Cmax ([1]; Sprague Dawley, rat, serum, po, 20 mg/kg, rat serum, 20 mg/kg oral, read-out: Cmax): 469 ± 45.5 ng/mL
MRT [1, 15]: 1.1 h
Vd [1, 15]: 3.7 L/kg
clearance [1, 15]: 18.3 mL/min
MRT ([1]; Sprague Dawley, serum, rat, 20 mg/kg oral): 3.9 h
bioavailability ([1]; Sprague Dawley, serum, rat, 20 mg/kg oral vs IV, based on AUC): 70.5%
AUC(0-inf) ([1]; Sprague Dawley, rat serum, 20 mg/kg IV): 1250 ng·h/mL
AUC(0-inf) [1, 16]: 882 ng·h/mL
Tmax [1, 16]: 1 h
Elimination t1/2 ([1]; rat serum, 20 mg/kg IV, 20 mg/kg): 2.1 h
Cmax ([1]; rat serum, 20 mg/kg oral, 20 mg/kg): 469.2 ng/mL
Time up to which detected in serum ([1]; rat, 20 mg/kg IV): up to 12 h
MAT (mean absorption time) ([1]; rat, 20 mg/kg oral, MRToral - MRTIV): 2.8 h
Earliest time detectable in serum ([1]; rat, post oral administration 20 mg/kg): 5 min
logP [8]: 0.55 ± 0.18
% of dose recovered, urine 0–12 h [9, 17]: 16.8%
fe (fraction excreted), urine [9, 17]: 0.90
% of dose recovered, urine total ([9]; IV 20 mg/kg, bile duct cannulated rats, up to 24 h, 20 mg/kg): 16.8 ± 2.7% and 16.8%
% of dose recovered, feces 0–12 h [9, 18]: 0.05%
% of dose recovered, feces 12–24 h [9, 18]: 0.02%
% of dose recovered, urine 0–12 h [9, 18]: 15.7%
fe (fraction excreted), feces [9, 18]: 0.0008
fe (fraction excreted), urine [9, 18]: 0.9
% of dose recovered, feces total [9, 19]: 0.08 ± 0.08% and 0.08%
% of dose recovered, urine total [9, 19]: 15.7 ± 3.3% and 15.7%
k el ([9]; bile, po, 20 mg/kg, oral 20 mg/kg, bile duct cannulated rats, read-out: Ke (excretion rate constant), bile (converted)): 2.78e-05 s⁻¹
k el ([9]; bile, po, 20 mg/kg, oral 20 mg/kg, bile duct cannulated rats, read-out: Kel (elimination rate constant), bile (converted)): 1.33e-05 s⁻¹
k el ([9]; feces, iv, 20 mg/kg, IV 20 mg/kg, non-cannulated rats, read-out: Ke (excretion rate constant), feces (converted)): 4.17e-05 s⁻¹
k el ([9]; feces, iv, 20 mg/kg, IV 20 mg/kg, non-cannulated rats, read-out: Kel (elimination rate constant), feces (converted)): 8.33e-06 s⁻¹
k el ([9]; feces, po, 20 mg/kg, oral 20 mg/kg, non-cannulated rats, read-out: Ke (excretion rate constant), feces (converted)): 1.94e-05 s⁻¹
k el ([9]; feces, po, 20 mg/kg, oral 20 mg/kg, non-cannulated rats, read-out: Kel (elimination rate constant), feces (converted)): 1.67e-05 s⁻¹
k el ([9]; urine, iv, 20 mg/kg, IV 20 mg/kg, bile duct cannulated rats, read-out: Ke (excretion rate constant), urine (converted)): 1.11e-05 s⁻¹
k el ([9]; urine, iv, 20 mg/kg, IV 20 mg/kg, bile duct cannulated rats, read-out: Kel (elimination rate constant), urine (converted)): 1.39e-05 s⁻¹
k el ([9]; urine, iv, 20 mg/kg, IV 20 mg/kg, non-cannulated rats, read-out: Ke (excretion rate constant), urine (converted)): 2.5e-05 s⁻¹
k el ([9]; urine, iv, 20 mg/kg, IV 20 mg/kg, non-cannulated rats, read-out: Kel (elimination rate constant), urine (converted)): 2.78e-05 s⁻¹
k el ([9]; urine, po, 20 mg/kg, oral 20 mg/kg, bile duct cannulated rats, read-out: Ke (excretion rate constant), urine (converted)): 1.67e-05 s⁻¹
k el ([9]; urine, po, 20 mg/kg, oral 20 mg/kg, bile duct cannulated rats, read-out: Kel (elimination rate constant), urine (converted)): 1.94e-05 s⁻¹
k el ([9]; urine, po, 20 mg/kg, oral 20 mg/kg, non-cannulated rats, read-out: Ke (excretion rate constant), urine (converted)): 1.11e-05 s⁻¹
k el ([9]; urine, po, 20 mg/kg, oral 20 mg/kg, non-cannulated rats, read-out: Kel (elimination rate constant), urine (converted)): 1.94e-05 s⁻¹
Excreted in urine, % of the dose [9]: 15%
Excreted in urine, % of the dose ([9]; listed as CDRI 85/92): ~ 15%
% of dose recovered, bile 0–12 h [9, 20]: 0.3%
% of dose recovered, bile 12–24 h [9, 20]: 0.08%
% of dose recovered, urine 0–12 h [9, 20]: 1.5%
% of dose recovered, urine 12–24 h [9, 20]: 0.2%
fe (fraction excreted), bile [9, 20]: 0.0037
fe (fraction excreted), urine [9, 20]: 0.83
% of dose recovered, bile total [9, 21]: 0.37 ± 0.12% and 0.37%
% of dose recovered, urine total [9, 21]: 1.7 ± 0.8% and 1.7%
% of dose recovered, feces 0–12 h [9, 22]: 1.0%
% of dose recovered, feces 12–24 h [9, 22]: 0.2%
% of dose recovered, urine 0–12 h [9, 22]: 3.7%
% of dose recovered, urine 12–24 h [9, 22]: 0.5%
fe (fraction excreted), feces [9, 22]: 0.012
% of dose recovered, feces total [9, 23]: 1.2 ± 0.6% and 1.2%
% of dose recovered, urine total [9, 23]: 4.2 ± 1.1% and 4.2%
Levels of the compound in bile and feces ([9]; rats, 20 mg/kg): insignificant levels
logP [12]: 0.53 ± 0.11
Solubility in formulation ([13]; 10 and 20 mg/ml in triple distilled water): completely soluble
Solubility in water ([13]; water): freely soluble in water
Compound: O=C1NC(C(=O)O)/C(=C\Cc2ccccc2)O1 (stereo not drawn) [CDRI-85/92, (5E)-2-oxo-5-(2-phenylethylidene)-1,3-oxazolidine-4-carboxylic acid]
% inhibition in the free acidity [2]: fairly compares with that of Omeprazole
Metabolism by glutathione-S-transferases [3]: very slow metabolism
log P [4]: 0.5
aqueous solubility [5]: > 500 µg/mL
Ka (absorption rate constant) [6]: 0.12 h⁻¹
Inhibition of proton pumps of the kidney and bone [7]: not inhibiting
Inhibition of the gastric proton pump [10]: selective and competitive inhibition
cytoprotective activity [11]: good cytoprotective activity

Compound: COc1ccc2[nH]c([S+]([O-])Cc3ncc(C)c(OC)c3C)nc2c1 (stereo not drawn) [Omeprazole, reference compound]
Type of proton pump inhibition [10]: irreversible proton pump inhibitor
half-life [14]: less than 5 min
